Data: PMC11915801, “Evolutionary trajectory of bacterial resistance to antibiotics and antimicrobial peptides in Escherichia coli” (mSystems, 2025)
Converted amounts (≈) assume the structure as drawn. Like-named read-outs stand apart in the source and are kept apart here.

What was measured:
Test in all cases: microbe, parasite or virus in culture
Assay type in all cases: cell-based, Escherichia coli
E. coli K-12 MG1655 = conditions: for MIC: Escherichia coli
Protocol: (§1) The broth microdilution method was used to measure the MIC values of antibiotics and peptides according to the Clinical and Laboratory Standards Institute guidelines. The MIC value is defined as the lowest drug concentration without visible bacteria.
Eight antibiotics and ten AMPs at the sub-inhibitory concentration were prepared. A 300-µL system, including 260 µL of MH broth, 30 µL of prepared drug, and 10 µL of bacterial culture, was used for resistance passages. After 12 h of incubation at 37℃ and 200 rpm, 10 µL of the above bacterial culture was added into the new sterile drug-containing broth. MIC values of bacterial culture were determined. The drug concentration was adjusted according to the MIC value change until the end of the 120 passages.

AMP120 (evolved MG1655) = conditions: broth microdilution, ampicillin-evolved strain; for MIC: Escherichia coli, MG1655
Description: (§2) To ensure the stable resistance evolution and inheritance of MG1655 under different drugs, we randomly selected three monoclonals from the evolved strains. The final antibiotic-evolved strains were designated as AMP120, AZI120, CHL80, CIP120, DOX120, KAN80, NIT70, and TMP30, while the final AMP-evolved strains were named COL120, Ind120, Omi120, Pex120, PGLA120, Pleu120, R8120, SAAP120, LI120, and SLAP120.
as §1

AZI120 (evolved MG1655) = conditions: broth microdilution, azithromycin-evolved strain; for MIC: Escherichia coli, MG1655
Description: as §2, §1

CHL80 (evolved MG1655) = conditions: broth microdilution, chloramphenicol-evolved strain; for MIC: Escherichia coli, MG1655
Description: as §2, §1

CIP120 (evolved MG1655) = conditions: broth microdilution, ciprofloxacin-evolved strain; for MIC: Escherichia coli
Description: as §2, §1

COL120 (evolved MG1655) = conditions: for MIC: Escherichia coli, MG1655
Description: as §2, §1

DOX120 (evolved MG1655) = conditions: broth microdilution, doxycycline-evolved strain; for MIC: Escherichia coli, MG1655
Description: as §2, §1

KAN80 (evolved MG1655) = conditions: for MIC: Escherichia coli, MG1655
Description: as §2, §1

NIT70 (evolved MG1655) = conditions: broth microdilution, nitrofurantoin-evolved strain; for MIC: Escherichia coli, MG1655
Description: as §2, §1

TMP30 (evolved MG1655) = conditions: broth microdilution, trimethoprim-evolved strain; for MIC: Escherichia coli, MG1655
Description: as §2, §1

[1] = MG1655, 12 h, read-out: MIC of MG1655 under the pressure of the same drug, generation 10
[2] = MG1655, read-out: MIC of MG1655 under the pressure of the same drug, generation primary
[3] = MG1655, as E2, generation 20, read-out: MIC of MG1655 under the pressure of the same drug, generation 20
[4] = MG1655, as E2, generation 30, read-out: MIC of MG1655 under the pressure of the same drug, generation 30
[5] = MG1655, as E2, generation 40, read-out: MIC of MG1655 under the pressure of the same drug, generation 40
[6] = MG1655, as E2, generation 50, read-out: MIC of MG1655 under the pressure of the same drug, generation 50
[7] = MG1655, as E2, generation 60, read-out: MIC of MG1655 under the pressure of the same drug, generation 60
[8] = MG1655, as E2, generation 70, read-out: MIC of MG1655 under the pressure of the same drug, generation 70
[9] = MG1655, as E2, generation 80, read-out: MIC of MG1655 under the pressure of the same drug, generation 80
[10] = MG1655, as E2, generation 90, read-out: MIC of MG1655 under the pressure of the same drug, generation 90
[11] = MG1655, as E2, generation 100, read-out: MIC of MG1655 under the pressure of the same drug, generation 100
[12] = MG1655, as E2, generation 110, read-out: MIC of MG1655 under the pressure of the same drug, generation 110
[13] = MG1655, as E2, generation 120, read-out: MIC of MG1655 under the pressure of the same drug, generation 120
[14] = broth microdilution, colistin-evolved strain
[15] = broth microdilution, kanamycin-evolved strain

| SMILES | MIC (E. coli K-12 MG1655; [1]) [mg/L] | MIC (E. coli K-12 MG1655; [2]) [mg/L] | MIC (E. coli K-12 MG1655; [3]) [mg/L] | MIC (E. coli K-12 MG1655; [4]) [mg/L] | MIC (E. coli K-12 MG1655; [5]) [mg/L] | MIC (E. coli K-12 MG1655; [6]) [mg/L] | MIC (E. coli K-12 MG1655; [7]) [mg/L] | MIC (E. coli K-12 MG1655; [8]) [mg/L] | MIC (E. coli K-12 MG1655; [9]) [mg/L] | MIC (E. coli K-12 MG1655; [10]) [mg/L] | MIC (E. coli K-12 MG1655; [11]) [mg/L] | MIC (AMP120 (evolved MG1655)) [mg/L] | MIC (AZI120 (evolved MG1655)) [mg/L] | MIC (CHL80 (evolved MG1655)) [mg/L] | MIC (CIP120 (evolved MG1655)) [mg/L] | MIC (COL120 (evolved MG1655); [14]) [mg/L] | MIC (DOX120 (evolved MG1655)) [mg/L] | MIC (KAN80 (evolved MG1655); [15]) [mg/L] | MIC (NIT70 (evolved MG1655)) [mg/L] | MIC (TMP30 (evolved MG1655)) [mg/L] | other results |
| --- | --- | --- | --- | --- | --- | --- | --- | --- | --- | --- | --- | --- | --- | --- | --- | --- | --- | --- | --- | --- | --- |
| CC1(C)S[C@@H]2[C@H](NC(=O)[C@H](N)c3ccccc3)C(=O)N2[C@H]1C(=O)O [AMP, Ampicillin] | 8 | 4 | 8 | 8 | 16 | 16 | 16 | 16 | 16 | 32 | 32 | 64 (≈ 183 µM) | 2 (≈ 5.72 µM) | 64 (≈ 183 µM) | 16 (≈ 45.8 µM) | 4 (≈ 11.4 µM) | 32 (≈ 91.6 µM) | 4 (≈ 11.4 µM) | 4 (≈ 11.4 µM) | 4 (≈ 11.4 µM) | MIC (E. coli K-12 MG1655; [12]): 64 mg/L; MIC (E. coli K-12 MG1655; [13]): 64 mg/L |
| CC[C@H]1OC(=O)[C@H](C)[C@@H](O[C@H]2C[C@@](C)(OC)[C@@H](O)[C@H](C)O2)[C@H](C)[C@@H](O[C@@H]2O[C@H](C)C[C@H](N(C)C)[C@H]2O)[C@](C)(O)C[C@@H](C)CN(C)[C@H](C)[C@@H](O)[C@]1(C)O [AZI, Azithromycin] | 2 | 2 | 2 | 2 | 2 | 4 | 4 | 4 | 4 | 4 | 4 | 1 (≈ 1.34 µM) | 16 (≈ 21.4 µM) | 2 (≈ 2.67 µM) | 4 (≈ 5.34 µM) | 0.5 (≈ 0.668 µM) | 2 (≈ 2.67 µM) | 2 (≈ 2.67 µM) | 4 (≈ 5.34 µM) | 16 (≈ 21.4 µM) | MIC (E. coli K-12 MG1655; [12]): 8 mg/L; MIC (E. coli K-12 MG1655; [13]): 16 mg/L; collateral sensitivity of COL120 (fold change of MIC vs wild-type MG1655) (COL120 (evolved MG1655); MIC of COL120 compared with MG1655): exceeding fourfold |
| O=C(N[C@H](CO)[C@H](O)c1ccc([N+](=O)[O-])cc1)C(Cl)Cl [CHL, Chloramphenicol] | 8 | 8 | 16 | 32 | 64 | 128 | 256 | 256 | 512 |  |  | 16 (≈ 49.5 µM) | 8 (≈ 24.8 µM) | 512 (≈ 1580 µM) | 32 (≈ 99 µM) | 8 (≈ 24.8 µM) | 64 (≈ 198 µM) | 2 (≈ 6.19 µM) | 8 (≈ 24.8 µM) | 8 (≈ 24.8 µM) | collateral sensitivity of KAN80 (fold change of MIC vs wild-type MG1655) (KAN80 (evolved MG1655); MIC of KAN80 compared with MG1655): exceeding fourfold |
| C[C@H]1c2cccc(O)c2C(=O)C2=C(O)[C@]3(O)C(=O)C(C(N)=O)=C(O)[C@@H](N(C)C)[C@@H]3[C@@H](O)[C@@H]21 [DOX, Doxycycline] | 16 | 2 | 32 | 32 | 32 | 32 | 32 | 32 | 32 | 32 | 32 | 2 (≈ 4.5 µM) | 8 (≈ 18 µM) | 16 (≈ 36 µM) | 16 (≈ 36 µM) | 4 (≈ 9 µM) | 32 (≈ 72 µM) | 1 (≈ 2.25 µM) | 8 (≈ 18 µM) | 4 (≈ 9 µM) | MIC (E. coli K-12 MG1655; [12]): 32 mg/L; MIC (E. coli K-12 MG1655; [13]): 32 mg/L |
| NC[C@H]1O[C@H](O[C@H]2[C@H](O)[C@@H](O[C@H]3O[C@H](CO)[C@@H](O)[C@H](N)[C@H]3O)[C@H](N)C[C@@H]2N)[C@H](O)[C@@H](O)[C@@H]1O [KAN, Kanamycin] |  |  |  |  |  |  |  |  |  |  |  |  |  |  |  |  |  |  |  |  | increase in MIC values after experimental evolution (E. coli K-12 MG1655; MG1655, sub-inhibitory drug in MH broth over 60 days, final vs primary MIC): 256 fold; MIC of MG1655 under the pressure of the same drug, generation 20 (E. coli K-12 MG1655; as E2, generation 20): 32 mg/L; MIC of MG1655 under the pressure of the same drug, generation 30 (E. coli K-12 MG1655; as E2, generation 30): 64 mg/L; MIC of MG1655 under the pressure of the same drug, generation 40 (E. coli K-12 MG1655; as E2, generation 40): 64 mg/L; MIC of MG1655 under the pressure of the same drug, generation 50 (E. coli K-12 MG1655; as E2, generation 50): 128 mg/L; MIC of MG1655 under the pressure of the same drug, generation 60 (E. coli K-12 MG1655; as E2, generation 60): 256 mg/L; MIC of MG1655 under the pressure of the same drug, generation 70 (E. coli K-12 MG1655; as E2, generation 70): 256 mg/L; MIC of MG1655 under the pressure of the same drug, generation 80 (E. coli K-12 MG1655; as E2, generation 80): 512 mg/L; MIC of MG1655 under the pressure of the same drug, generation primary (E. coli K-12 MG1655; broth microdilution (CLSI), primary MG1655 before passage): 2 mg/L; MIC of MG1655 under the pressure of the same drug, generation 10 (E. coli K-12 MG1655; broth microdilution, line passaged in MH broth with sub-inhibitory drug, 12 h per passage, 37℃, generation 10): 16 mg/L; MIC values of evolved MG1655, strain AMP120 (AMP120 (evolved MG1655)): 1 mg/L; MIC values of evolved MG1655, strain AZI120 (AZI120 (evolved MG1655)): 4 mg/L; MIC values of evolved MG1655, strain CHL80 (CHL80 (evolved MG1655)): 2 mg/L; MIC values of evolved MG1655, strain CIP120 (CIP120 (evolved MG1655)): 4 mg/L; MIC values of evolved MG1655, strain COL120 (COL120 (evolved MG1655); [14]): 4 mg/L; MIC values of evolved MG1655, strain DOX120 (DOX120 (evolved MG1655)): 2 mg/L; MIC values of evolved MG1655, strain KAN80 (KAN80 (evolved MG1655); [15]): 512 mg/L; MIC values of evolved MG1655, strain NIT70 (NIT70 (evolved MG1655)): 4 mg/L; MIC values of evolved MG1655, strain TMP30 (TMP30 (evolved MG1655)): 4 mg/L |
